Measured values reported in ChEMBL document CHEMBL4038298, “Ester- and amide-containing multiQACs: Exploring multicationic soft antimicrobial agents” (Bioorg Med Chem Lett, 2017).

Experiments:
[1] = tested on: Staphylococcus aureus; experiment: Antibacterial activity against community acquired methicillin-resistant Staphylococcus aureus USA300-0114 incubated for 72 hrs; assay type: functional; conditions: USA300-0114, 72 h
[2] = Stability of the compound in pure water by LCMS method; assay type: physicochemical
[3] = Ratio of MIC for community acquired methicillin-resistant Staphylococcus aureus USA300-0114 to HC20 for sheep RBC assessed as compound concentration required for <20% hemolysis
[4] = tested on: Escherichia coli; experiment: Antibacterial activity against Escherichia coli MC4100 incubated for 72 hrs; assay type: functional; conditions: str. K-12 substr. MC4100, 72 h
[5] = tested on: Staphylococcus aureus; experiment: Antibacterial activity against hospital-acquired methicillin-resistant Staphylococcus aureus ATCC 33592 incubated for 72 hrs; assay type: functional; conditions: ATCC 33592, 72 h
[6] = tested on: Staphylococcus aureus; experiment: Antibacterial activity against methicillin-susceptible Staphylococcus aureus SH1000 incubated for 72 hrs; assay type: functional; conditions: SH1000, 72 h
[7] = tested on: Enterococcus faecalis; experiment: Antibacterial activity against Enterococcus faecalis OG1RF incubated for 72 hrs; assay type: functional
[8] = tested on: Pseudomonas aeruginosa; experiment: Antibacterial activity against Pseudomonas aeruginosa PAO1 incubated for 72 hrs; assay type: functional; conditions: PAO1, 72 h
[9] = Half life at pH 7 buffer solution by LCMS method
[10] = Stability of the compound in pure water up to 72 hrs by LCMS analysis; assay type: physicochemical; conditions: read-out: Stability
[11] = Stability in buffer solution assessed as decomposition at pH 4 by LCMS analysis; assay type: physicochemical
[12] = Stability in buffer solution assessed as decomposition at pH 10 by LCMS analysis; assay type: physicochemical
[13] = Ratio of MIC for Enterococcus faecalis OG1RF to HC20 for sheep RBC assessed as compound concentration required for <20% hemolysis
[14] = Stability in buffer solution at pH 7 after 16 hrs by LCMS analysis; assay type: physicochemical; conditions: read-out: Stability
[15] = Solubility of the compound in buffer solution at pH 10 by LCMS analysis; assay type: physicochemical
[16] = Stability in buffer solution at pH 10 after 16 hrs by LCMS analysis; assay type: physicochemical; conditions: read-out: Stability

SMILES | MIC [1] | Stability [2] | Ratio [3] | MIC [4] | MIC [5] | MIC [6] | MIC [7] | MIC [8] | T1/2 [9] | remaining at 72 h [10] | Stability [11] | Stability [12] | Ratio [13] | remaining at 16 h [14] | solubility [15] | remaining at 16 h [16]
CCCCCCCCCCCCCCOC(=O)C[N+](C)(C)CCC[N+](C)(CCC[N+](C)(C)CC(=O)OCCCCCCCCCCCCCC)CC(=O)OCCCCCCCCCCCCCC.[Br-].[Br-].[Br-] | 16 µM | Stable | 4 | 63 µM | 32 µM | 63 µM | 32 µM | 250 µM | – | – | – | – | – | – | – | –
CCCCCCCCCCOC(=O)C[N+](C)(C)CCCN(CCC[N+](C)(C)CC(=O)OCCCCCCCCCC)CCC[N+](C)(C)CC(=O)OCCCCCCCCCC.[Br-].[Br-].[Br-] | 4 µM | – | – | 8 µM | 4 µM | 2 µM | 8 µM | 16 µM | 3 h | ≥ 90% | Unstable | Unstable | – | – | – | –
CCCCCCCCCCCCCCOC(=O)C[N+](C)(C)CCCN(CCC[N+](C)(C)CC(=O)OCCCCCCCCCCCCCC)CCC[N+](C)(C)CC(=O)OCCCCCCCCCCCCCC.[Br-].[Br-].[Br-] | 16 µM | Stable | 4 | 32 µM | 32 µM | 125 µM | 16 µM | 250 µM | – | – | – | – | 4 | – | – | –
CCCCCCCCCCNC(=O)C[N+](C)(C)CCCN(CCC[N+](C)(C)CC(=O)NCCCCCCCCCC)CCC[N+](C)(C)CC(=O)NCCCCCCCCCC.[Br-].[Br-].[Br-] | 0.5 µM | – | – | 1 µM | 1 µM | 1 µM | 1 µM | 8 µM | – | ≥ 90% | – | Unstable | – | > 80% | Insoluble | > 80%
CCCCCCCCCCOC(=O)C[N+](C)(C)CCN1CC[N+](C)(CC(=O)OCCCCCCCCCC)CC1.[Br-].[Br-] | 2 µM | – | – | 2 µM | 2 µM | 2 µM | 4 µM | 16 µM | 3 h | ≥ 90% | Unstable | Unstable | – | – | – | –
CCCCCCCCCCNC(=O)C[N+](C)(C)CCN1CC[N+](C)(CC(=O)NCCCCCCCCCC)CC1.[Br-].[Br-] | 0.5 µM | – | – | 1 µM | 0.5 µM | 0.5 µM | 0.5 µM | 2 µM | – | ≥ 90% | – | Unstable | – | > 80% | Insoluble | > 80%
